In publication PMC5893282 (ACS infectious diseases, 2018):

What was measured:
[1] = tested on: E. coli ΔtolC PrecA-GFP SOS reporter; experiment: Cell-based SOS reporter assay; settings: ciprofloxacin 128 ng/mL, 2 hours, ΔtolC reporter strain
FlAsH-LexAPa with RecA* = FlAsH-LexAPa with RecA* (Pseudomonas aeruginosa, UniProt P37452); experiment: Pilot screen of Microsource Spectrum library with FlAsH-LexAPa; type: biochemical, P. aeruginosa; settings: fixed concentration of 16 μM, single endpoint
Chain of FlAsH-LexAPa with RecA* (P37452 81-204): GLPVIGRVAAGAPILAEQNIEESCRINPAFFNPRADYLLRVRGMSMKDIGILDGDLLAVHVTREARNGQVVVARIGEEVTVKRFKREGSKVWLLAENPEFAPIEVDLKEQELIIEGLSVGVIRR

Compound	Increase in GFP fluorescence over the unstressed control [1]	Hit in pilot screen (FlAsH-LexAPa with RecA*)
O=C(O)c1cn(C2CC2)c2cc(N3CCNCC3)c(F)cc2c1=O [ciprofloxacin]	~ 50 fold	
Cc1ccc(C(=O)Nc2ccc(S(=O)(=O)O)c3cc(S(=O)(=O)O)cc(S(=O)(=O)O)c23)cc1NC(=O)c1cccc(NC(=O)Nc2cccc(C(=O)Nc3cc(C(=O)Nc4ccc(S(=O)(=O)O)c5cc(S(=O)(=O)O)cc(S(=O)(=O)O)c45)ccc3C)c2)c1 [suramin]		identified in this pilot screen
